Several values for one entry are separate records, joined by “and”; a condition that tells them apart may be missing. Equal entries are not always repeated. Toxic doses and inconclusive results are not listed. The calls were made as follows: active = survival T/C of 150% or more; inactive = T/C below 125% in these data.
Test system: CD2F1 mice, L1210 leukemia ip, survival T/C
Assay: NCI In Vivo Anticancer Drug Screen. Data for tumor model L1210 Leukemia (intraperitoneal) in CD2F1 (CDF1) mice
Details: higher = longer survival
In short: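 Vehicle-treated tumor-bearing mice served as controls (C) for compound-treated mice (T). Reported figure is T divided by C.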

[1] = endpoint: mean survival time, dose: 100.0 mg/kg/injection, schedule: Q01DX001 (ip), vehicle: Klucel (hydroxypropylcellulose) (HPC)
[2] = endpoint: mean survival time, dose: 200.0 mg/kg/injection, schedule: Q01DX001 (ip), vehicle: Klucel (hydroxypropylcellulose) (HPC)
[3] = endpoint: mean survival time, dose: 400.0 mg/kg/injection, schedule: Q01DX001 (ip), vehicle: Klucel (hydroxypropylcellulose) (HPC)
[4] = endpoint: mean survival time, dose: 100.0 mg/kg/injection, schedule: Q01DX009 (ip), vehicle: saline with Tween-80
[5] = endpoint: mean survival time, dose: 200.0 mg/kg/injection, schedule: Q01DX009 (ip), vehicle: saline with Tween-80
[6] = endpoint: mean survival time, dose: 100.0 mg/kg/injection, schedule: Q04DX003 (ip), vehicle: saline with Tween-80
[7] = endpoint: mean survival time, dose: 200.0 mg/kg/injection, schedule: Q04DX003 (ip), vehicle: saline with Tween-80
[8] = endpoint: mean survival time, dose: 400.0 mg/kg/injection, schedule: Q04DX003 (ip), vehicle: saline with Tween-80

Measured: T/C

C[PH+](C)C.C[PH+](C)C.[Au]
inactive: endpoint: median survival time, dose: 0.62 mg/kg/injection, schedule: Q01DX009 (ip), vehicle: saline 101 % of control | endpoint: median survival time, dose: 1.25 mg/kg/injection, schedule: Q01DX009 (ip), vehicle: saline 101 % of control | endpoint: median survival time, dose: 2.5 mg/kg/injection, schedule: Q01DX009 (ip), vehicle: saline 101 % of control | endpoint: median survival time, dose: 5.0 mg/kg/injection, schedule: Q01DX009 (ip), vehicle: saline 101 % of control | endpoint: median survival time, dose: 10.0 mg/kg/injection, schedule: Q01DX009 (ip), vehicle: saline 101 % of control

Nc1ncnc2snnc12
inactive: [1] 100 % of control | [2] 96 % of control | [3] 100 % of control

CCC(C1=NC(C)(C)CC(C)O1)c1ccccc1 (configuration not stated) (tested in a mixture with another compound)
inactive: [4] 102 % of control | [5] 93 % of control

Cn1ncc(C#N)c1N
inactive: [1] 117 % of control | [2] 102 % of control | [3] 102 % of control

CC(C)(C)[CH2][Sn]([Cl])([CH2]C(C)(C)C)[CH2]C(C)(C)C
inactive: endpoint: mean survival time, dose: 3.13 mg/kg/injection, schedule: Q04DX002 (ip), vehicle: saline with Tween-80 97 % of control | endpoint: mean survival time, dose: 6.25 mg/kg/injection, schedule: Q04DX002 (ip), vehicle: saline with Tween-80 101 % of control | endpoint: mean survival time, dose: 12.5 mg/kg/injection, schedule: Q04DX002 (ip), vehicle: saline with Tween-80 103 % of control

c1ccc2c(c1)OC1(CCCCC1)O2
inactive: [6] 100 % of control | [7] 103 % of control | [8] 102 % of control

O=c1[nH]c(=O)n(C2CC(O)C(CO)O2)cc1Br (configuration not stated)
inactive: endpoint: mean survival time, dose: 25.0 mg/kg/injection, schedule: Q01DX009 (ip), vehicle: Klucel (hydroxypropylcellulose) (HPC) 103 % of control | endpoint: mean survival time, dose: 50.0 mg/kg/injection, schedule: Q01DX009 (ip), vehicle: Klucel (hydroxypropylcellulose) (HPC) 123 % of control | endpoint: mean survival time, dose: 100.0 mg/kg/injection, schedule: Q01DX009 (ip), vehicle: Klucel (hydroxypropylcellulose) (HPC) 120 % of control | endpoint: mean survival time, dose: 200.0 mg/kg/injection, schedule: Q01DX009 (ip), vehicle: Klucel (hydroxypropylcellulose) (HPC) 112 % of control | endpoint: mean survival time, dose: 400.0 mg/kg/injection, schedule: Q01DX009 (ip), vehicle: Klucel (hydroxypropylcellulose) (HPC) 112 % of control | endpoint: mean survival time, dose: 800.0 mg/kg/injection, schedule: Q01DX009 (ip), vehicle: Klucel (hydroxypropylcellulose) (HPC) 115 % of control

COc1cc(/C=N\NC(C)=O)cc(OC)c1OC
inactive: [6] 101 % of control | [7] 95 % of control

CN(C)CCc1ccc(O)cc1
inactive: endpoint: mean survival time, dose: 25.0 mg/kg/injection, schedule: Q01DX001 (ip), vehicle: saline 103 % of control | endpoint: mean survival time, dose: 50.0 mg/kg/injection, schedule: Q01DX001 (ip), vehicle: saline 105 % of control | endpoint: mean survival time, dose: 100.0 mg/kg/injection, schedule: Q01DX001 (ip), vehicle: saline 98 % of control and 100 % of control | [4] 97 % of control | [6] 102 % of control | [5] 102 % of control | [7] 96 % of control | endpoint: mean survival time, dose: 400.0 mg/kg/injection, schedule: Q01DX009 (ip), vehicle: saline with Tween-80 101 % of control | [8] 104 % of control

N#CC1c2ccccc2C=CN1C(=O)OCc1ccccc1 (configuration not stated)
inactive: endpoint: mean survival time, dose: 100.0 mg/kg/injection, schedule: Q04DX003 (ip), vehicle: Klucel (hydroxypropylcellulose) (HPC) 91 % of control | endpoint: mean survival time, dose: 200.0 mg/kg/injection, schedule: Q04DX003 (ip), vehicle: Klucel (hydroxypropylcellulose) (HPC) 110 % of control | endpoint: mean survival time, dose: 400.0 mg/kg/injection, schedule: Q04DX003 (ip), vehicle: Klucel (hydroxypropylcellulose) (HPC) 106 % of control

CCCS(=O)(=O)CS(=O)(=O)CC
inactive: endpoint: mean survival time, dose: 75.0 mg/kg/injection, schedule: Q01DX001 (ip), vehicle: saline with Tween-80 100 % of control | endpoint: mean survival time, dose: 150.0 mg/kg/injection, schedule: Q01DX001 (ip), vehicle: saline with Tween-80 92 % of control | endpoint: mean survival time, dose: 300.0 mg/kg/injection, schedule: Q01DX001 (ip), vehicle: saline with Tween-80 90 % of control

C[n+]1c(-c2cccc3ccccc23)c2cc(N)ccc2c2ccccc21
inactive: endpoint: mean survival time, dose: 0.78 mg/kg/injection, schedule: Q01DX009 (ip), vehicle: water 106 % of control | endpoint: mean survival time, dose: 1.56 mg/kg/injection, schedule: Q01DX009 (ip), vehicle: saline 108 % of control | endpoint: mean survival time, dose: 1.56 mg/kg/injection, schedule: Q01DX009 (ip), vehicle: water 103 % of control | endpoint: mean survival time, dose: 3.12 mg/kg/injection, schedule: Q01DX009 (ip), vehicle: saline 118 % of control | endpoint: mean survival time, dose: 3.13 mg/kg/injection, schedule: Q01DX009 (ip), vehicle: water 111 % of control | endpoint: mean survival time, dose: 3.5 mg/kg/injection, schedule: Q01DX009 (ip), vehicle: water 104 % of control | endpoint: mean survival time, dose: 5.3 mg/kg/injection, schedule: Q01DX009 (ip), vehicle: water 106 % of control | endpoint: mean survival time, dose: 6.25 mg/kg/injection, schedule: Q01DX009 (ip), vehicle: saline 106 % of control | endpoint: mean survival time, dose: 6.25 mg/kg/injection, schedule: Q01DX009 (ip), vehicle: water 97 % of control and 110 % of control | endpoint: mean survival time, dose: 8.0 mg/kg/injection, schedule: Q01DX009 (ip), vehicle: water 114 % of control | endpoint: mean survival time, dose: 12.0 mg/kg/injection, schedule: Q01DX009 (ip), vehicle: water 121 % of control | endpoint: mean survival time, dose: 12.5 mg/kg/injection, schedule: Q01DX009 (ip), vehicle: saline 116 % of control | endpoint: mean survival time, dose: 12.5 mg/kg/injection, schedule: Q01DX009 (ip), vehicle: water 119 % of control and 122 % of control | endpoint: mean survival time, dose: 18.0 mg/kg/injection, schedule: Q01DX009 (ip), vehicle: water 112 % of control | endpoint: mean survival time, dose: 25.0 mg/kg/injection, schedule: Q01DX009 (ip), vehicle: saline 93 % of control
